Consider 11 molecules from ChEMBL document CHEMBL3785074, “Molecular modeling and snake venom phospholipase A2 inhibition by phenolic compounds: Structure-activity relationship” (Eur J Med Chem, 2016).

Active and inactive are the calls of the source. The rule behind the calls is not given here.

Series [1] can be described thus: Protective activity against Daboia russellii venom-induced mortality by measuring venom LD50 in Swiss albino mouse at 100 mmol, iv preincubated with venom for 1 hr followed by administration to mouse measured after 24 hrs (reference value: 2.28 ug). Type of series: functional, Daboia russelii.
The nature of series [2]: Protective activity against Daboia russellii venom-induced mortality in Swiss albino mouse at 100 mmol, iv preincubated with venom for 1 hr followed by administration to mouse measured after 24 hrs relative to untreated control. Type of series: functional, Daboia russelii.
Series [3] in a line: Protective activity against Naja kaouthia venom-induced mortality in Swiss albino mouse at 100 mmol, iv by measuring venom LD50 preincubated with venom for 1 hr followed by administration to mouse measured after 24 hrs (reference value: 2.82 ug). Format: functional.
Series [4] is described as follows: Protective activity against Naja kaouthia venom-induced mortality in Swiss albino mouse at 100 mmol, iv preincubated with venom for 1 hr followed by administration to mouse measured after 24 hrs relative to untreated control. Type of series: functional.
A short description of series [5]: Protective activity against Daboia russellii venom-induced hemorrhage in intradermally dosed Swiss albino mouse at 100 mmol assessed as hemorhagic lesion by measuring minimal […] dose preincubated with venom for 1 hr followed by administration to mouse measured after 24 hrs (reference value: 5 ug). Format: functional, Daboia russelii.
Series [6] in a line: Protective activity against Daboia russellii venom-induced hemorrhage in intradermally dosed Swiss albino mouse at 100 mmol assessed as hemorhagic lesion preincubated with venom for 1 hr followed by administration to mouse measured after 24 hrs relative to untreated control. Type of series: functional, Daboia russelii.
Series [7] is described as follows: (§1) Protective activity against Daboia russellii venom-induced mortality in Swiss albino mouse at 100 mmol, iv by measuring venom LD50 administered immediately after venom injection measured after 24 hrs (reference value: 2.28ug). Format: functional, Daboia russelii.
Series [8] in a line: Protective activity against Daboia russellii venom-induced mortality in Swiss albino mouse at 100 mmol, iv administered immediately after venom injection measured after 24 hrs relative to untreated control. Format: functional, Daboia russelii.
A short description of series [9]: Protective activity against Naja kaouthia venom-induced mortality in Swiss albino mouse at 100 mmol, iv by measuring venom LD50 administered immediately after venom injection measured after 24 hrs (reference value: 2.82 ug). Type of series: functional.
Series [10] can be described thus: Protective activity against Naja kaouthia venom-induced mortality in Swiss albino mouse at 100 mmol, iv administered immediately after venom injection measured after 24 hrs relative to untreated control. Format: functional.
Series [11] is described as follows: (§2) Protective activity against Daboia russellii venom-induced hemorrhage in Swiss albino mouse at 100 mmol, iv assessed as hemorhagic lesion by measuring […] administered immediately after venom injection measured after 24 hrs (Rvb =5 ug). Type of series: functional, Daboia russelii.
Series [12] can be described thus: Protective activity against Daboia russellii venom-induced hemorrhage in Swiss albino mouse at 100 mmol, iv assessed as hemorhagic lesion administered immediately after venom injection measured after 24 hrs relative to untreated control. Format: functional, Daboia russelii.
Series [13] has as its system Daboia russelii. Description: Protective activity against Daboia russellii venom-induced mortality in iv dosed Swiss albino mouse administered immediately after venom injection relative to untreated control. Format: functional, organism-based.
A short description of series [14]: Protective activity against Daboia russellii venom-induced mortality in iv dosed Swiss albino mouse administered 30 mins after venom injection relative to untreated control. Type of series: functional, Daboia russelii.
For series [15], the system named is Naja kaouthia. Put plainly: Protective activity against Naja kaouthia venom-induced mortality in iv dosed Swiss albino mouse assessed as administered 30 to 60 mins after venom injection. Format: functional, organism-based.
Series [16] in a line: Protective activity against Daboia russellii venom-induced defibrinogenation in iv dosed Swiss albino mouse assessed as venom level causing blood coagulation at 100 mmol preincubated with venom for 1 hr followed by administration to mouse relative to untreated. Type of series: functional, Daboia russelii.
Series [17] in a line: Protective activity against Daboia russellii venom-induced defibrinogenation in iv dosed Swiss albino mouse assessed as blood coagulation at 100 mmol administered immediately after venom injection relative to untreated control. Format: functional, Daboia russelii.
Series [18] deals with Daboia russelii. Put plainly: Protective activity against Daboia russellii venom-induced coagulation in goat plasma assessed as increase in plasma recalcification time at 20 mmol preincubated with venom for 1 hr followed by plasma addition. Format: functional, cell-free.
Series [19] can be described thus: Protective activity against Daboia russellii venom-induced defibrinogenation in iv dosed Swiss albino mouse assessed as venom level causing blood coagulation at 100 mmol preincubated with venom for 1 hr followed by administration to mouse (reference value: 2.5 ug). Type of series: functional, Daboia russelii.
Series [20] in a line: Protective activity against Daboia russellii venom-induced defibrinogenation in iv dosed Swiss albino mouse assessed as venom level causing blood coagulation at 100 mmol administered immediately after venom injection (reference value: 2.5 ug). Type of series: functional, Daboia russelii.
The nature of series [21]: Lipophilicity, log P of compound. Type of series: physicochemical. The following applies: octanol/water.
The test system of series [22] is Daboia russelii. Described as §1. Format: functional.
Series [23] concerns Daboia russelii. The description is as §2. Format: functional.
The subject of series [24] is Daboia russelii.
The subject of series [25] is Naja kaouthia.
In series [26] the test system is Naja kaouthia. This is another data set of the same source.
Description: Protective activity against Naja kaouthia venom-induced mortality in Swiss albino mouse at 100 mmol, iv by measuring venom LD50 administered immediately after venom injection measured after 24 hrs (Rvb = 2.82 ug)
Series [27] in a line: Protective activity against Daboia russellii venom-induced mortality in iv dosed Swiss albino mouse administered 60 mins after venom injection relative to untreated control. Format: functional, Daboia russelii.

Turning to `C=CCOc1ccc(C=O)c(O)c1`, the LD50 stood at 22 µg in series [1], 9 µg in series [3], 150 µg in [7] and 10 µg in series [9]. Further, the “fold change (FC)” value turned out to be 9.8 in series [2]; 3.2 in [4]; 10 in series [6]; 3.75 in series [8]; 2 in [10]; 2 in series [12]. In addition, the “fold change (FC)” value in series [16] was 2; in [17], 1.5. Further, the figures for the MHC in [5] and in [11] were 50 µg and 10 µg, respectively. Moreover, the result with Daboia russelii [13] and with Daboia russelii [18] was Active. Also, the Activity in series [14] stood at 40%; in series [19], 5 µg; in series [20] it was 3.5 µg. Also, the outcome with Naja kaouthia [15] was inactive.

For orientation: logP means a log measure of how a compound divides between an organic and an aqueous phase. For the molecule `CCOc1cc(C=O)ccc1O` [ETHYL VANILLIN], the LD50 in series [1] was determined as 11 µg; in series [3], 3 µg; in series [7], 100 µg; in [9], 10 µg. Besides, the “fold change (FC)” value in [2] came out at 4.9; in series [4], 1; in [6] it was 3; in series [8] it was 2.5; in [10], 2; in series [12], 2. For the same molecule, the MHC in [5] was 15 µg; in [11] it was 10 µg. The logP in series [21] (read-out: logP) was 1.81.

As for `CCOc1ccc(C=O)c(O)c1`, in [5], the MHC was determined as 5 µg. Further, the “fold change (FC)” value in series [6] was found to be 1. In addition, the LD50 entry in the series with Daboia russelii [22], in the series on Daboia russelii [24], in the series on Naja kaouthia [25] and with Naja kaouthia [26] was “inactive” in each case. Moreover, the MHC result in the series on Daboia russelii [23] is “inactive”.

Take `CCCCCCCOc1ccc(C=O)c(O)c1`: the LD50 in series [1] turned out to be 6 µg; in series [3] it was 3 µg. The results for the “fold change (FC)” value in series [2], in series [4] and in series [6] were 2.6, 1 and 1, respectively. The MHC in series [5] is 5 µg. Also, the LD50 entry with Daboia russelii [22] and in the series with Naja kaouthia [26] was “inactive” each time. For the same molecule, the MHC result with Daboia russelii [23] is “inactive”.

Consider `CCCOc1ccc(C=O)c(O)c1`, for which the MHC in series [5] worked out at 5 µg. Moreover, the “fold change (FC)” value in series [6] came out at 1. Further, the LD50 entry with Daboia russelii [22], with Daboia russelii [24], in the series on Naja kaouthia [25] and with Naja kaouthia [26] was “inactive” each time. The MHC entry in the series on Daboia russelii [23] was “inactive”.

Turning to `COc1ccc(CO)c(O)c1`, the LD50 in series [1] turned out to be 22 µg; in [3], 9 µg; in series [7] it was 150 µg; in series [9], 10 µg. Moreover, the “fold change (FC)” value in [2] amounted to 9.8; in series [4], 3.2; in series [6], 6; in series [8] it was 3.75; in series [10] it was 2; in [12], 1. For the same molecule, the entries for the “fold change (FC)” value in series [16] and in [17] were 10 and 1.5, respectively. Also, the MHC came out at 30 µg in series [5] and 5 µg in [11]. The result in the series on Daboia russelii [13] and in the series on Daboia russelii [18] was Active. Moreover, the Activity was 40% in series [14], 10% in series [27], 25 µg in series [19] and 3.5 µg in series [20]. Further, the result in the series on Naja kaouthia [15] was inactive.

Take `COc1cc(C=O)ccc1O` [VANILLIN]: the LD50 in series [1] was 22 µg; in [3], 9 µg; in series [7], 150 µg; in [9] it was 10 µg. The “fold change (FC)” value in series [2] was 9.8; in [4], 3.2; in [6], 4; in series [8], 3.75; in series [10] it was 2; in series [12], 1. Moreover, the figures for the MHC in [5] and in [11] were 20 µg and 5 µg, respectively. For the same molecule, the logP in series [21] (read-out: logP) amounted to 1.87.

Consider `CCCCOc1ccc(C=O)c(O)c1`, for which the LD50 is 18 µg in [1], 6 µg in [3], 150 µg in series [7] and 10 µg in series [9]. In addition, the “fold change (FC)” value is recorded as 8 in series [2]; 2.1 in series [4]; 8 in series [6]; 3.75 in [8]; 2 in series [10]; 2 in [12]. Moreover, the “fold change (FC)” value is reported as 2.4 in [16] and 1.5 in series [17]. Also, the figures for the MHC in series [5] and in series [11] were 140 µg and 10 µg, respectively. Further, the outcome with Naja kaouthia [15] was inactive. Moreover, the result in the series with Daboia russelii [18] was Active. For the same molecule, the values for the Activity in series [19] and in [20] were 6 µg and 3.5 µg, respectively.

On to `COc1cccc(C=O)c1O`, for which the LD50 worked out at 25 µg in series [1], 9 µg in [3], 150 µg in series [7] and 10 µg in series [9]. Also, the “fold change (FC)” value in series [2] came out at 11.2; in series [4] it was 3.2; in series [6], 10; in [8] it was 3.75; in series [10] it was 2; in series [12] it was 2. The “fold change (FC)” value in series [16] amounted to 10; in [17], 1.5. The results for the MHC in [5] and in [11] were 50 µg and 10 µg, respectively. Further, the log partition coefficient (logP) in series [21] came to 2.39. The outcome in the series with Daboia russelii [13] and in the series with Daboia russelii [18] was Active. The Activity is 40% in series [14], 10% in series [27], 25 µg in series [19] and 3.5 µg in series [20]. In the series on Naja kaouthia [15], the result was inactive.

Consider `COc1ccc(/C=N/O)c(OC)c1`, for which the LD50 was determined as 6 µg in series [1], 3 µg in [3] and 50 µg in series [7]. In addition, the “fold change (FC)” value in [2] amounted to 2.6; in series [4] it was 1; in series [6], 1; in series [8], 1.25. Moreover, the MHC in series [5] was 5 µg. Also, the MHC result with Daboia russelii [23] was “inactive”. Further, the LD50 result with Naja kaouthia [26] is “inactive”.

As for `COc1ccc(C=O)c(OC)c1`, the LD50 in series [1] is 22 µg; in series [3] it was 9 µg; in series [7], 100 µg; in series [9], 8 µg. In addition, the “fold change (FC)” value in series [2] is recorded as 9.8; in [4] it was 3.2; in series [6], 5; in series [8], 2.5; in series [10], 1.6; in series [12] it was 2. The MHC in [5] was found to be 25 µg; in series [11] it was 10 µg. For the same molecule, the logP in [21] (read-out: logP) came out at 0.97. Moreover, in the series with Daboia russelii [13], the outcome was Active. In series [14], this molecule registered an Activity of 40%.
